From PubChem BioAssay (NCI)
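Where inhibition never reached the appropriate level, the endpoint shown equals the highest concentration tested. Otherwise, values were interpolated linearly from a five-concentration, 48-hour dose response in 96-well plates. TGI is the concentration that stops growth completely.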

Key:
Test in all cases: growth of human tumour cells (NCI), 48 h
SW-620 colon = tested on: SW-620 colon
HCT-15 colon = tested on: HCT-15 colon
UO-31 renal = tested on: UO-31 renal
SF-295 CNS = tested on: SF-295 CNS
A498 renal = tested on: A498 renal
K-562 leukemia = tested on: K-562 leukemia
RXF 393 renal = tested on: RXF 393 renal
DU-145 prostate = tested on: DU-145 prostate
786-0 renal = tested on: 786-0 renal
NCI-H226 lung = tested on: NCI-H226 lung
SK-OV-3 ovarian = tested on: SK-OV-3 ovarian
OVCAR-8 ovarian = tested on: OVCAR-8 ovarian
HCT-116 colon = tested on: HCT-116 colon
MCF7 breast = tested on: MCF7 breast
MDA-MB-435 = tested on: MDA-MB-435
HCC-2998 colon = tested on: HCC-2998 colon
IGROV1 ovarian = tested on: IGROV1 ovarian
KM12 colon = tested on: KM12 colon
NCI-H460 lung = tested on: NCI-H460 lung

Compound	TGI (SW-620 colon) [µM]	TGI (HCT-15 colon) [µM]	TGI (UO-31 renal) [µM]	TGI (SF-295 CNS) [µM]	TGI (A498 renal) [µM]	TGI (K-562 leukemia) [µM]	TGI (RXF 393 renal) [µM]	TGI (DU-145 prostate) [µM]	TGI (786-0 renal) [µM]	TGI (NCI-H226 lung) [µM]	TGI (SK-OV-3 ovarian) [µM]	TGI (OVCAR-8 ovarian) [µM]	TGI (HCT-116 colon) [µM]	TGI (MCF7 breast) [µM]	TGI (MDA-MB-435) [µM]	TGI (HCC-2998 colon) [µM]	TGI (IGROV1 ovarian) [µM]	TGI (KM12 colon) [µM]	TGI (NCI-H460 lung) [µM]
CC(=O)OC1CCN(C(=O)c2ccccc2)CC1CC1(c2cc3ccccc3[nH]2)OCCO1 (centres undefined)	> 100	> 100	> 100	> 100	96.2	> 100	> 100	> 100	> 100	> 100	> 100	> 100	> 100	> 100	> 100	> 100	> 100	> 100	
CC1=NN(c2nc(N)nc(CCl)n2)CC1	76.4	43.6	20.5	> 100	> 100	32.7	> 100	> 100	23	> 100	> 100	48.6	87.4	> 100	> 100	> 100	25.9	55.3	48.8
COc1cc2cc(C(=O)N3CC(CCl)c4c3cc([N+](=O)[O-])c3ccccc43)[nH]c2c(OC)c1OC (centres undefined)	> 100	> 100	> 100	97.7	97.6	> 100	> 100	> 100	> 100	> 100	> 100	> 100	> 100	> 100	> 100	> 100	> 100	> 100	> 63.8
O=C1/C(=C/C=C/c2ccccc2)N=C(c2ccccc2)N1C1Nc2cc3c(cc2S1)NC(N1C(=O)/C(=C/C=C/c2ccccc2)N=C1c1ccccc1)S3 (centres undefined)	> 100	> 100	> 100	> 100	> 100	> 100	> 100	> 100	> 100	> 100	> 100	> 100	> 100	> 100	> 100	37.2	> 100	> 100	> 100
CSc1c(C(=O)Nc2ccc(Cl)cc2)c(N)nn1-c1ccccc1	> 100	> 100	> 100	> 100	> 100	> 100	> 87.4	> 100	> 43.2	> 100	> 100	> 100	> 100	> 100	> 100	> 100	> 100	> 100	> 100
CC1(c2ccc(F)cc2)CC(c2ccc(F)cc2)=C(C#N)C(=C(C#N)C#N)N1 (centres undefined)	62.1	31.7	32	37.1	35.8	38.1	28.3	28.5	29.3	82.1	37.3	54	30.5	32.5	32	28.2	32.3	30.1	38.2
Cc1ccc(S(=O)(=O)N2CC3OC(C)(C)OC3C2CO)cc1 (centres undefined)	> 100	> 100		> 100	> 100	> 100	> 100	> 100	> 100	> 100	> 100	> 100	> 100	> 100	> 100	> 100	> 100	> 100	> 100
CSC1=C(C(=O)Nc2ccc(Cl)cc2)C(N)=NC1=O	> 100	> 100	> 100		> 100	> 100	> 100	> 100	> 100	> 100	> 100	> 100	> 100	> 100	> 100	> 100	> 100	> 100	> 100
O=C(Nc1cc(C(=O)Nc2cccc(S(=O)(=O)O)c2)cc(C(=O)Nc2cccc(S(=O)(=O)O)c2)c1)c1cccc(C(=O)Nc2cc(C(=O)Nc3cccc(S(=O)(=O)O)c3)cc(C(=O)Nc3cccc(S(=O)(=O)O)c3)c2)c1	> 100	> 100	> 100	> 100	> 100	58.6	> 100	> 100	> 100	> 100	> 100	> 100	> 100	> 100	> 100	> 100	> 100	> 100	> 100
C=CC(Cl)(CBr)CCC(Br)=C(C)C (centres undefined)	29.2	35.9	37.4	> 100	> 100	> 100	38.5	> 100	67.6	> 100		64.6	63	31.5	46.7	44.5	29.9	40.7	38
Cc1ccc([N+](=O)[O-])c2c(NCCNC(=O)Cn3ccnc3[N+](=O)[O-])ccnc12	> 100	> 100	> 100	43.3	> 100	> 100	16.5	> 100	> 100	88	59.7	> 100	> 100	44.2	> 100	> 100	86.6	> 100	> 100
CCOC(=O)Cc1nnc2c(-c3ccccc3)nc3ccccc3n12	> 100	> 100	> 100		> 100	> 100	36.4	73.4	> 100	> 100	67.6		> 100	> 100	> 100	64.8	> 100	> 100	> 100
CC(C)CNC(=O)CCc1cccc2c1oc1c(CCN)cccc12	27.5	43	25.2	31.6	32.3	14.2	31.4	33.8	24.9	33.6	31.6	34.1	21.5	46.1	25.2	29.3	23.7	28.4	36.9
CC1=NN(c2cccc(Cl)c2)C2(SCC(=O)N2c2nc3ccccc3s2)/C1=C\c1ccc(Cl)cc1 (centres undefined)	27.9	38.1	29.5	42.7	40.2	41.3	38.4	39.2	48.1	75.1	47.3	40.7	31.3	87	43.1	27.5	37.8	34.8	33.3
CCOc1ccc(N=NC2C(=O)N(C(=O)CC(=O)Nc3ccccc3OC)N=C2C)cc1 (centres undefined)	52.9	> 100	> 100	> 53.8	> 31.6	> 100	26.3	> 100	> 57.3	> 100	> 87.4	> 100	> 100	> 100	4.12	> 60.3	> 100	> 100	> 42.8
CCCCCCCC1(N=[N+]=[N-])C(=O)c2ccccc2N(C)C1=O (centres undefined)	> 100	> 100		> 100	> 100		> 100	> 100	> 100	> 100	> 100	> 100	> 100	> 100	> 100	> 100	> 100	> 100	> 100
N#Cc1c(-c2ccc(Cl)cc2)cc(-c2ccc(Nc3ccnc4cc(C(F)(F)F)ccc34)cc2)[nH]c1=O	> 84.2	> 100		> 87.1	> 89.6	15.6	22.6	> 48.5	24.9	> 100	73.1	> 100	> 44	> 100	10.2	> 100	> 100	> 100	> 100
COC1=C2CC(C)CC(OC)[C@@H](OC(=O)CCN)[C@H](C)/C=C(\C)C(OC(N)=O)C(OC)/C=C\C=C(/C)C(=O)NC(=CC1=O)C2=O (some centres undefined)	1.48	13.8	16.3	30.1	31.2		17.5	20.8	14.2	40.6	25.4	15.5	12.3	2.03	6.96	5.69	3.25	8.36	24.4
OCC(CN1CCCCC1)(CN1CCCCC1)CN1CCCCC1	> 100	> 100	> 100		> 100	> 100	> 100	> 100	> 100	> 100	> 100	> 100	> 100	> 100	> 100	> 100	> 100	> 100	> 100
COC(OC)C1OC(CO)C(n2cc(C)c(=O)[nH]c2=O)C1O (centres undefined)	> 100	> 100	> 100	> 100	> 100	> 100	> 100	> 100	> 100	> 100	> 100	> 100	> 100	> 100	> 100	> 100	> 100	> 100	> 100
CC(=N/NC(=S)N1CCCCC1)/C(=N\NC(=S)N1CCCCC1)c1ccccc1		4.56	4.03	3.82	2.65	> 100	2.82	0.973	3.69	3.47	3.49	6.24	5.83	> 22.7	4.07	4.48	3.27	3.99	4.48
O=C1/C(=C/c2cccnc2)C(n2cccc2)c2c(Br)sc(Br)c21 (centres undefined)	> 21.9	4.96	3.43	32	30.4	7.39	4.45	3.53	6.17	> 100	29.3	4.81	4.97	4.02	3.42	2.41	3.38	8.45	18.9
C[C@H]1O[C@@H](c2c(O)ccc3ccccc23)C[C@@H](N(C)C)C1O (some centres undefined)	> 100	> 100	> 100	> 100	> 100	> 100	77.3	> 100	> 100	> 100	> 100	> 100	> 100	> 100	> 100	> 100	> 100		> 100
Cc1ccc(/C(O)=C/c2nc3ccccc3oc2=O)cc1		> 100	> 100	> 100	> 100	> 100	> 100	> 100	> 100	> 100		> 100	> 100	> 100	83.4	> 100	> 100	> 100	> 100
N#Cc1ccc(Oc2nc3ccccc3nc2-c2ccccc2)cc1	> 100	> 100	> 100	> 100	> 100	> 100	> 100	> 100	> 100	> 100	> 100		> 100	> 100	> 100	> 100	> 100	> 100	> 100
